Experimental data taken from ChEMBL document CHEMBL1123805, “Synthesis of certain nucleoside methylenediphosphonate sugars as potential inhibitors of glycosyltransferases” (J Med Chem, 1987).
The source made the active and inactive calls. No cut-off for these calls is given here.

Columns and labels:
[1] = system: CCRF-CEM; assay: In vitro antitumor activity was evaluated against human T-lymphoblastic leukemia cell lines; None = no activity; assay type: functional, cell-based
[2] = species: Mus musculus; assay: Glycosyltransferase inhibitory activity up to a concentration of 50 ug/mL; Without significant activity
[3] = system: L1210; assay: In vitro antitumor activity was evaluated against L1210 leukemia cell lines; None = no activity; assay type: functional, cell-based; conditions: Mus musculus
[4] = system: Vero; assay: In vitro antiviral activity was evaluated against vero cell lines infected with Parainfluenza virus type 3; non toxic at concentrations as high as 50000 uM; assay type: functional, cell-based; conditions: Chlorocebus sabaeus
[5] = system: Vero; assay: In vitro antiviral activity was evaluated against vero cell lines infected with adenovirus type 2; non toxic at concentrations as high as 50000 uM; assay type: functional, cell-based; conditions: Chlorocebus sabaeus
[6] = system: WIL2; assay: In vitro antitumor activity was evaluated against human B-lymphoblastic leukemia cell lines; None = no activity; assay type: functional, cell-based
[7] = system: Vero; assay: In vitro antiviral activity was evaluated against vero cell lines infected with herpes simplex virus type-2; non toxic at concentrations as high as 50000 uM; assay type: functional, cell-based; conditions: Chlorocebus sabaeus
[8] = system: Vero; assay: In vitro antiviral activity was evaluated against vero cell lines infected with influenza virus; non toxic at concentrations as high as 50000 uM; assay type: functional, cell-based; conditions: Chlorocebus sabaeus
[9] = system: Vero; assay: In vitro antiviral activity was evaluated against vero cell lines infected with rhino virus; non toxic at concentrations as high as 50000 uM; assay type: functional, cell-based; conditions: Chlorocebus sabaeus
[10] = system: Vero; assay: In vitro antiviral activity was evaluated against vero cell lines infected with visna virus; non toxic at concentrations as high as 50000 uM; assay type: functional, cell-based; conditions: Chlorocebus sabaeus

`Nc1ncnc2c1ncn2C1O[C@H](COP(=O)(O)CP(=O)(O)OC2O[C@H](CO)[C@@H](O)[C@H](O)[C@H]2O)[C@@H](O)[C@H]1O` (stereo not given in full) was tested, and the Cytotoxiciy [1] was “None”, the Activity [2] was “Without significant activity” and the Cytotoxiciy [3] was “None”. The Activity [4] was “inactive”, the Activity [5] was “inactive” and the Cytotoxiciy [6] was “None”. For the same molecule, the Activity [7] was “inactive”, the Activity [8] was “inactive” and the Activity [9] was “inactive”. The Activity [10] was “inactive”.
